Source: patent US20170298360A1, “LATS AND BREAST CANCER” (FRIEDRICH MIESCHER INSTITUTE FOR BIOMEDICAL RESEARCH, priority 2014, published 2017)
Peptide text beside a SMILES is read from it. * marks the point of attachment. Cbz = O=C(OCc1ccccc1)*

Columns and labels:
[1] = test system: ERα; assay: LATS1-induced ERα degradation in LATS1 overexpressing cells (immunoblot); format: cell-based, human
Experimental: Cell lines and in vitro experiments SUM159PT human breast cancer cells were from Asterand and propagated as recommended. All the other cell lines were from, and were cultured according to the protocol of ATCC. MCF10A cells were maintained as previously described (Bentires-Alj et al., 2006). For most experiments, MCF10A, SUM159 and MDA 436 cells were cultured in M5 medium and the medium was refreshed or replaced every 3 days. Antibody blocking experiments were performed by adding anti-AREG (R&D, MAB262, 0.5-10 μg/ml) or a mouse IgG antibody (R&D, 10 or 2.5 μg/ml) to the medium prior to seeding of the cells or transferring the conditioned medium. Cell viability was measured using the Cell Proliferation Reagent WST-1 (Roche). Colony formation assays were performed by seeding 500-1000 cells/well in 6-well plates. Cells were allowed to adhere overnight before treatment with inhibitors or solvent as indicated. Colonies were stained after 6-10 days with 0.2% crystal violet in PBS/4% formalin. Colony area was quantified using the Odyssey scanner and software (LICOR) or Image-J (Fiji 64 bit). For sphere formation assays, 4000 (passage 1) or 1000 (subsequent passages) MCF10A cells/ml were grown in ultra-low attachment (ULA) dishes (Corning) for 5-7 days. […]

[2] = test system: T47D; assay: Orthotopic xenograft tumor growth of ER-positive breast cancer cells lacking LATS; format: in vivo, mouse; details: cancer cells lacking LATS grown as xenograft, intraperitoneal
Experimental: Animal experiments SCID/beige and SCID/NOD (Jackson Labs) were used in compliance with the Swiss laws for animal welfare and animal protocols were approved by the Swiss Cantonal Veterinary Office of Basel. For orthotopic engraftment of breast cancer cell lines, 2×10^6 T47D or 1×10^6 SUM159 cells were suspended in a 100 μl mixture of Basement Membrane Matrix Phenol Red-free (BD Biosciences) and PBS 1:1 and injected into the mouse mammary gland 4. For the estrogen-dependent T47D cell line, mice received estrogen-containing drinking water 2 days prior to injection. Tumor-bearing mice were randomized based on tumor volume prior to the initiation of treatment, which started when average tumor volume was at least 100 mm^3. Fulvestrant and Tamoxifen hydrate dissolved in sunflower seed oil (all from Sigma) were injected intraperitoneally as indicated. Tumors were measured every 3 to 4 days with vernier calipers, and tumor volumes were calculated by the formula 0.5×(larger diameter)×(smaller diameter)^2.
Compounds and formulations Fulvestrant, 4-Hydroxytamoxifen (4-OHT), Tamoxifen (OHT), Cycloheximide and MG132 were from Sigma. Fulvestrant and MG-132 were prepared as 10 mMol/L stock solution in DMSO, 4-OHT and Cycloheximide as 10 mMol/L in ethanol and all stock solutions were stored at −20° C. […]

[3] = test system: T47D and MCF7 cells; assay: Cell viability (WST-1) of ER-positive breast cancer cells after downregulation of LATS; format: cell-based, human; details: LATS downregulated vs control
Text: (§1) Lentiviral vectors, lentivirus production and infection For LATS knockdown, the following TRC pLKO clones (Sigma) were used: LATS_1=NM_004690.x-2666s1c1, LATS_2=NM_004690.x-3614s1c1, LATS_3=NM_014572.x-2894s1c1 and the MISSION® Non-Target shRNA Control Vector SHC002. For the competition experiment, GFP and ERα expressing lentiviral vectors were cloned as described in (Duss, BCR, 2007). Lentiviruses were produced by PEI transfection of 293 T cells as described (Britschgi et al., 2012; Duss et al., 2014). The titer of each lentiviral batch was determined on PHBECs or MCF10A cells. Cell lines were infected o/n in the presence of hexamethrine bromide (8 μg/mL). Infections were performed at a multiplicity of infection of 5-20 viral particles per cell. Selection with 1.25-1.5 μg/ml puromycin was applied 48 h after infection.
(§2) Cell lines and in vitro experiments SUM159PT human breast cancer cells were from Asterand and propagated as recommended. All the other cell lines were from, and were cultured according to the protocol of ATCC. MCF10A cells were maintained as previously described (Bentires-Alj et al., 2006). […] Cell viability was measured using the Cell Proliferation Reagent WST-1 (Roche). […] Colony area was quantified using the Odyssey scanner and software (LICOR) or Image-J (Fiji 64 bit). […]

[4] = target: T1, ERα (Homo sapiens, UniProt P03372); assay: ERα degradation in luminal breast cancer cells lacking LATS; format: cell-based; details: cancer cells lacking LATS grown as xenograft
T1 sequence (P03372 1-595): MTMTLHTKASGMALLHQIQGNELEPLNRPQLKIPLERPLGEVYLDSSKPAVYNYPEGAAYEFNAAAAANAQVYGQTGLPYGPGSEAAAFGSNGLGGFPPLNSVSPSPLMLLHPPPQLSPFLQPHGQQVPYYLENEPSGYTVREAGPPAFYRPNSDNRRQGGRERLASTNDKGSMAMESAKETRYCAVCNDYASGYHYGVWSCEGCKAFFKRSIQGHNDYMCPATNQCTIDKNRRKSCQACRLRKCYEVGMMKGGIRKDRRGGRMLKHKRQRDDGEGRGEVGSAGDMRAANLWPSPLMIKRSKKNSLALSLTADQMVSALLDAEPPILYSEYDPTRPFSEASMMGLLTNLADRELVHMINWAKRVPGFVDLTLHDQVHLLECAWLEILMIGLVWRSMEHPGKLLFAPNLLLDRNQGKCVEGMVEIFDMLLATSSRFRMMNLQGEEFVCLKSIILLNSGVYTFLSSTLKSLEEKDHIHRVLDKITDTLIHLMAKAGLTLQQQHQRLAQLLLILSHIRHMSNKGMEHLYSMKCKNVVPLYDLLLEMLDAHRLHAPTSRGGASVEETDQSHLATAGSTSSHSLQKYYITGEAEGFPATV
Experimental: Immunoblotting and immunoprecipitation Cells for immunoblotting and ELISA were lysed with RIPA buffer (50 mM Tris-HCl pH 8, 150 mM NACl, 1% NP-40, 0.5% sodium deoxycholate, 0.1% SDS), supplemented with 1× protease inhibitor cocktail (Complete Mini, Roche), 0.2 mMol/L sodium orthovanadate, 20 mM sodium fluoride and 1 mM phenylmethylsulfonyl fluoride. […]

[5] = test system: SUM159 and MDA 436; assay: Colony formation of triple-negative breast cancer lines with or without LATS; format: cell-based, human; details: SUM159 and MDA 436 in M5 medium
Text: as §1, §2

[6] = test system: SUM159 shLATS xenografts; assay: Orthotopic SUM159 shNT / shLATS xenograft tumor growth; format: in vivo, mouse; details: tumor-bearing mice, tamoxifen citrate 3 mg/kg, intraperitoneal, n=5, **P<0.01 vs shNT
Experimental: Animal experiments SCID/beige and SCID/NOD (Jackson Labs) were used in compliance with the Swiss laws for animal welfare and animal protocols were approved by the Swiss Cantonal Veterinary Office of Basel. For orthotopic engraftment of breast cancer cell lines, 2×10^6 T47D or 1×10^6 SUM159 cells were suspended in a 100 μl mixture of Basement Membrane Matrix Phenol Red-free (BD Biosciences) and PBS 1:1 and injected into the mouse mammary gland 4. […] Tumor-bearing mice were randomized based on tumor volume prior to the initiation of treatment, which started when average tumor volume was at least 100 mm^3. Fulvestrant and Tamoxifen hydrate dissolved in sunflower seed oil (all from Sigma) were injected intraperitoneally as indicated. Tumors were measured every 3 to 4 days with vernier calipers, and tumor volumes were calculated by the formula 0.5×(larger diameter)×(smaller diameter)^2.
For in vivo studies, fulvestrant and tamoxifen were dissolved in sunflower seed oil (Sigma) and injected intraperitoneal as indicated.

| Compound | LATS1-induced degradation of ERα [1] | reduction of tumor growth [2] | effect of LATS downregulation on sensitivity / viability of treated cells [3] | degradation of ERα [4] | colony formation in cells lacking LATS compared to controls [5] | tumor growth of SUM159 shLATS xenografts [6] | tumor growth of SUM159 shLATS xenografts ([6]; listed as tamoxifen citrate) |
| --- | --- | --- | --- | --- | --- | --- | --- |
| CC(C)C[C@@H](C=O)NC(=O)[C@H](CC(C)C)NC(=O)[C@H](CC(C)C)NC(=O)OCc1ccccc1 [MG132] (Cbz-Leu-Leu-Leu-aldehyde) | prevented |  |  |  |  |  |  |
| C[C@]12CC[C@@H]3c4ccc(O)cc4C[C@@H](CCCCCCCCC[S+]([O-])CCCC(F)(F)C(F)(F)F)[C@H]3[C@@H]1CC[C@@H]2O (stereo partly drawn) [fulvestrant, Fulvestrant] |  | failed | reduced sensitivity | failed to degrade ERα | no effect |  |  |
| CC/C(=C(\c1ccccc1)c1ccc(OCCN(C)C)cc1)c1ccccc1 [tamoxifen, Tamoxifen] |  |  | no effect |  | reduced colony formation | stopped growing | susceptible |
